Earlier results as cited in US10786520B2, “Aminoglycoside derivatives and uses thereof in treating genetic disorders” (Eloxx Pharmaceuticals Ltd., priority 2015, dated 2020).

System: human fibroblast cells

CN[C@@H]1[C@@H](O)[C@@H](O[C@@H]2[C@@H](O)[C@H](O[C@H]3O[C@H]([C@@H](C)O)[C@@H](O)[C@H](O)[C@H]3N)[C@@H](N)C[C@H]2N)OC[C@]1(C)O [Compound G-418, G-418]
LD50 against human fibroblast cells: 0.04 mg/mL
